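Compound exposure: 48 hours, 5 concentrations, 96-well plates. TGI: total growth inhibition.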
Columns and labels:
Assay in all cases: NCI anticancer screen, dose series, 48 h
[1] = system: SN12C renal
[2] = system: A498 renal
[3] = system: SF-268 CNS
[4] = system: T-47D breast
[5] = system: IGROV1 ovarian
[6] = system: EKVX NSCLC
[7] = system: NCI-H522 lung
[8] = system: SK-OV-3 ovarian
[9] = system: HT29 colon
[10] = system: HOP-62 NSCLC
[11] = system: A549 NSCLC
[12] = system: KM12 colon
[13] = system: NCI-H23 lung
[14] = system: SR leukemia
[15] = system: MDA-N

| SMILES | TGI [1] [µM] | TGI [2] [µM] | TGI [3] [µM] | TGI [4] [µM] | TGI [5] [µM] | TGI [6] [µM] | TGI [7] [µM] | TGI [8] [µM] | TGI [9] [µM] | TGI [10] [µM] | TGI [11] [µM] | TGI [12] [µM] | TGI [13] [µM] | TGI [14] [µM] | TGI [15] [µM] |
| --- | --- | --- | --- | --- | --- | --- | --- | --- | --- | --- | --- | --- | --- | --- | --- |
| CCSC(=O)/C=C1\CN(C(=O)OC(C)(C)C)C1C(=O)OC(C)(C)C (stereo not drawn) | 7.06 | 23.9 | 21.6 | 13.4 | 14.6 | 26 | 5.79 | 28.2 | > 35.4 | 28.9 | 26.4 | 12.3 | 8.7 | 2.48 | – |
| O=Cc1ccc(-c2cccc([N+](=O)[O-])c2)s1 | > 100 | 53.4 | > 100 | > 100 | > 100 | > 100 | > 100 | > 100 | > 100 | > 100 | > 100 | > 100 | > 100 | > 100 | – |
| Cc1ccc(S(=O)(=O)NC2=NS(=O)(=O)c3cc(C)c(Cl)cc3S2)cc1 | > 100 | > 100 | > 100 | > 100 | > 100 | > 100 | > 100 | > 100 | > 100 | > 100 | > 100 | > 100 | > 100 | > 100 | – |
| Nc1ccccc1OCc1cc(=O)c(OCc2ccccc2)co1 | 0.823 | – | > 100 | > 100 | – | > 100 | – | 83.7 | > 100 | > 100 | > 100 | > 100 | > 100 | > 100 | > 100 |
| CCN(CC)CCC(=O)c1ccc(Oc2ccccc2)cc1 | 31.4 | – | 55.9 | 42 | 33.3 | 41.4 | – | > 100 | 38.3 | 77.4 | > 100 | 27.4 | 78.5 | > 100 | 30.1 |
| COc1cc(C2c3cc4c(cc3OC(NCc3ccccc3)C2C)OCO4)cc(OC)c1OC (stereo not drawn) | > 52.1 | > 100 | > 36.8 | – | > 36.5 | > 100 | 4.02 | > 35.3 | 3.32 | > 64 | > 94 | 5.69 | > 48.2 | – | – |
| COC(=O)c1c(O)ccc2c1c1c(n2-c2ccc(OC)cc2)C(=O)c2ccccc2C1=O | > 100 | > 100 | 32.4 | 66.2 | 91.6 | 39.6 | 56.3 | 39.2 | 15.2 | 34.5 | 32.2 | 77.8 | > 100 | – | > 100 |
| O=C(Cc1ccccc1)NNc1nc(NNC(=O)c2ccncc2)nc(Nc2ccc(Cl)cc2)n1 | > 10 | – | > 10 | > 10 | > 10 | > 10 | – | > 10 | – | > 10 | > 10 | > 10 | > 10 | > 10 | > 10 |
| CC1CC(C)(O)CC(C(O)CC2CC(=O)NC(=O)C2)C1=O (stereo not drawn) | 0.64 | 3.51 | > 69.3 | 3.18 | 1.55 | 3.45 | < 0.0476 | 2.45 | 1.61 | 0.449 | 7.19 | 1.41 | 1.56 | – | 1.16 |
| O=C(NCC(C(=O)OCc1ccccc1)C(=O)OCc1ccccc1)OCc1ccccc1 | > 100 | – | > 100 | – | > 100 | > 100 | > 100 | > 100 | > 100 | > 100 | > 100 | > 100 | > 100 | > 100 | > 100 |
| COc1cc(/C=C2\CC3C4CC[C@H]5C[C@@H](O)CC[C@]5(C)C4CC[C@]3(C)C2=O)cc(OC)c1OC (stereo partly drawn) | 95.3 | 75.5 | > 100 | 34.8 | > 100 | > 100 | 43.3 | 52.9 | > 100 | 49.2 | > 100 | 73.7 | > 100 | – | > 100 |
| Fc1ccc(Nc2nnc(-c3ccccn3)s2)cc1 | > 100 | > 100 | > 100 | > 100 | > 100 | > 100 | > 100 | > 100 | > 100 | > 100 | > 100 | > 100 | > 100 | – | > 100 |
| CC(C)(C)c1cc(C(=O)/C=C/c2ccc3c(c2)CCO3)cc(C(C)(C)C)c1O | > 33.9 | 24.4 | 24.5 | > 100 | > 100 | > 100 | 2.16 | > 80.3 | > 27.2 | > 93.7 | 22.9 | 3.66 | > 24.5 | 7.39 | – |
| COc1ccc2c(c1)N=C1CSC(c3c(Cl)cccc3[N+](=O)[O-])N1C2 (stereo not drawn) | > 100 | – | > 100 | > 100 | > 100 | > 100 | > 100 | > 100 | > 100 | > 100 | > 100 | > 100 | > 100 | – | > 100 |
| CC(C)CCCC(C)[C@H]1CC[C@H]2[C@@H]3CC[C@H]4C[C@@H](CCC=C(c5cc(Cl)c(O)c(C(=O)O)c5)c5cc(Cl)c(O)c(C(=O)O)c5)CC[C@]4(C)[C@H]3CC[C@]12C (stereo partly drawn) (tested in a mixture with another compound) | > 50 | > 50 | > 50 | > 50 | > 50 | > 50 | > 50 | > 50 | > 50 | > 50 | > 50 | > 50 | > 50 | – | – |
| O=C1c2ccccc2-c2c1c(-c1ccccc1)c1n2C2(C(=O)c3ccccc3C2=O)C2C(=O)N(c3ccccc3)C(=O)C12 (stereo not drawn) | 61.4 | > 100 | 65.6 | 65.7 | > 100 | > 100 | 33.6 | > 100 | 41.6 | 63.7 | > 100 | 47.9 | 37.4 | – | 65.3 |
| N/C(COc1ccc(Cl)cc1)=N\NC(=O)c1ccncc1 | > 100 | > 100 | > 100 | > 100 | > 100 | > 100 | > 100 | > 100 | > 100 | > 100 | > 100 | > 100 | > 100 | – | > 100 |
| COc1ccc2c(c1)CCCN1Cc3ccccc3CC21 (stereo not drawn) | > 100 | 96.8 | > 100 | > 100 | > 100 | > 100 | > 100 | > 100 | > 100 | > 100 | > 100 | > 100 | > 100 | – | > 100 |
| COc1ccc([C@H](NC(=O)c2ccccc2)[C@@H](O)C(=O)O[C@H]2C[C@@]3(O)C(OC(=O)c4ccccc4)C4[C@](C)(C(=O)[C@H](OC(C)=O)C(=C2C)C3(C)C)[C@@H](O)C[C@H]2OC[C@@]42OC(C)=O)cc1 (stereo partly drawn) | > 10 | – | > 10 | > 10 | > 10 | > 10 | – | – | 0.0656 | – | > 10 | – | > 10 | 0.694 | > 10 |
| O=C1NC(=NC2CCCCC2)C2(CCN(CCCC3(c4ccc(F)cc4)OCCO3)CC2)N1c1ccccc1 | 37.5 | – | 42.2 | 53.2 | – | 36.2 | 34.1 | 42.7 | 33.1 | 31.8 | 46.3 | 38.9 | 34.3 | 31.4 | 28.7 |
| COC(=O)CC1(O)C(/C=C/c2ccccc2)C(C(=O)OC)C(=O)C(C(=O)OC)C1C(=O)OC (stereo not drawn) | > 100 | > 100 | > 100 | – | > 100 | > 100 | > 100 | > 100 | > 100 | > 100 | > 100 | > 100 | > 100 | > 100 | > 100 |
| COc1ccc(NS(=O)c2ccc(OC)cc2)cc1 (stereo not drawn) | > 100 | – | 74.4 | 82.8 | 99.4 | > 100 | > 100 | – | > 100 | > 100 | > 100 | 24.1 | > 100 | > 100 | > 100 |
| O=CC1C[C@@H](N2C(=O)O[C@@H](c3ccccc3)[C@H]2c2ccccc2)[C@@H]1COCc1ccccc1 (stereo partly drawn) | 48 | 49.2 | 37.1 | – | 35.4 | 43.2 | 34 | – | 37.8 | 44.5 | > 100 | > 100 | 33.4 | 45.7 | 38.1 |
| CC(=O)OC[C@@H](OC(C)=O)[C@@H](OC(C)=O)[C@H]1OC[C@@H]2C[C@H]([C@H]1OC(C)=O)N(Cc1ccccc1)O2 | > 100 | – | > 100 | > 100 | > 100 | > 100 | – | > 100 | > 100 | > 100 | > 100 | > 100 | > 100 | > 100 | > 100 |
